Experimental data published in patent US11160869B2 (priority 2019, dated 2021).

Tests used:
[1] = system: growth factors, chemokines and cytokines; assay type: in vivo, mice; conditions: mouse, in vivo
[2] = Single oral capsule dose in NHP: plasma caffeine by LC-MS/MS; assay type: in vivo, Macaca fascicularis
Description: In order to quantitate plasma caffeine levels, an LC-MS/MS detection system was employed. A 25-μL matrix aliquot was fortified with 25 μL of 2.00 μg/mL caffeine-trimethyl-^13C3 internal standard working solution. Analytes were isolated through supported liquid extraction (SLE). A portion of the eluate was transferred and evaporated under a nitrogen stream at approximately 45° C., and the remaining residue reconstituted with 500 μL of water/acetonitrile (95:5, v/v). The final extract was analyzed via HPLC with MS/MS detection using positive ion electrospray and reverse phase chromatography. Caffeine concentration was determined using similarly run calibration controls.
IL-10 delivery construct dosing at multiple fixed doses in non-naïve adult male Macaca fascicularis was conducted by Valley Biosystems (West Sacramento, Calif.). […] Dosing groups are described in TABLE 45.

[3] = Surfactant evaluation under shear stress (vortex 800 rpm 4 h): visual, turbidity, SEC-HPLC; assay type: physicochemical; conditions: for effect of surfactant on IL-10 delivery construct forms (SEC-HPLC): 1xPBS, before/after vortexing
Description: Following vortexing, the solution was visually inspected. The sample without a surfactant was slightly hazy while the samples with the surfactant were clear after vortexing. The turbidity (340-360 nm) of the solution was assessed after vortexing.
SEC-HPLC was carried out on the IL-10 delivery construct formulations before (FIG. 93) and after (FIG. 94) vortexing (TABLE 48).

[4] = system: STAT3; assay: pSTAT3/total STAT3 in colon tissue of non-inflamed mice (ELISA MSD); assay type: in vivo; conditions: construct 1 mg/kg; rhIL-10 0.9 mg/kg; oral
[5] = Intraluminal injection in T-cell transfer model: rhIL-10 ELISA in intestinal tissue and serum; assay type: in vivo, BALB/c and SCID mice; conditions: intraluminal injection
Description: This study was conducted to examine the potential for the carrier protein to transport rhIL-10 from the intestinal lumen into the submucosal region in inflamed intestinal tissue. The T lymphocyte (T cell) transfer model was used as it is a well-established model of induced chronic colitis in mice and presents many of the essential immunological hallmarks observed in IBD patients. Nine BALB/c mice and twelve SCID mice, including nine with the colitis-like model of inflammation, were dosed with 20 μl of test article via intraluminal injection into the distal ileum and the proximal, middle and distal colon. […] In each group, two mice were terminated 10 minutes after intraluminal injections, and one was terminated 40 minutes after intraluminal injections. Intestinal tissue and serum were collected. Collected tissue was fixed, embedded, sectioned and H&E stained for histological assessment of inflammatory status. ELISA analysis to measure rhIL 10 was performed on lysates prepared from intestinal tissue and serum (FIGS. 106A-106D).

[6] = system: STAT3; assay: pSTAT3 induction and hIL-10 in intestinal tissue 40 min after oral gavage, immunofluorescence and image analysis; assay type: in vivo, rat; conditions: 40 min post oral gavage
Description: This observation is consistent with findings in mice that intestinal epithelial cells can express IL-10 receptors at their apical surface under certain conditions associated with development and maintenance of barrier function. […] In order to quantify how test articles affected intestinal IL-10 signal transduction pathways, image analysis was performed: high-throughput image batches were collected, segmented by epithelial versus lamina propria localization, and then by cellular features.

[7] = system: STAT3; assay: STAT3 phosphorylation in J774.2 macrophage cells
[8] = system: IL-1Ra; assay: Systemic IL-1Ra in non-inflamed mice (ELISA MSD); assay type: in vivo; conditions: construct 10 mg/kg; rhIL-10 3 mg/kg; oral
[9] = biological target: T1, IL-10RA and IL-10RB (Homo sapiens, UniProt Q08334+Q13651); assay: IL-10 receptor dimerization luminescence assay in engineered U2OS cells; conditions: 6 h
T1 sequence (Q13651 22-578): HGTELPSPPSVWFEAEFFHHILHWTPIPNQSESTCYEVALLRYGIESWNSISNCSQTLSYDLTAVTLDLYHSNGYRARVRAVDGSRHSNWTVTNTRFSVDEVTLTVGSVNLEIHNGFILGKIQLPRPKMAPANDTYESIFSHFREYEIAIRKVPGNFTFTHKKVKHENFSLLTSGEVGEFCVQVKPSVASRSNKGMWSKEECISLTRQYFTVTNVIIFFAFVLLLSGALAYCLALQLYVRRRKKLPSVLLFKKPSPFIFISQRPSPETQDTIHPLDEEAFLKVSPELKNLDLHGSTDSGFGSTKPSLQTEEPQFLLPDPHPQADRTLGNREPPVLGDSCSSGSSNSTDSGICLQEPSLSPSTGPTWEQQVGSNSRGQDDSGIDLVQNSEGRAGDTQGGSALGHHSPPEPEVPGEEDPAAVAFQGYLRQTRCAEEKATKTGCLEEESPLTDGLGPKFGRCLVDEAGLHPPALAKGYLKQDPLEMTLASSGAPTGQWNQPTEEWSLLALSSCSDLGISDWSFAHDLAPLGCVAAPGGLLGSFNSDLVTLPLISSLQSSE
T1 sequence (Q08334 20-325): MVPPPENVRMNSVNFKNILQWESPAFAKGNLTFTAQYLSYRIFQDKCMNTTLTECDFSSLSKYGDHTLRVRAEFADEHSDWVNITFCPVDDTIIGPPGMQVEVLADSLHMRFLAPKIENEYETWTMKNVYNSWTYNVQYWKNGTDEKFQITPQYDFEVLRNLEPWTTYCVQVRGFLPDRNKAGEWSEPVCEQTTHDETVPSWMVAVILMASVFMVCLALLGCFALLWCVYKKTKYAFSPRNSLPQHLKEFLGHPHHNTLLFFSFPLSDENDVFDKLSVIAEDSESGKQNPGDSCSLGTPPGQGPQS

Molecule: Nc1ccc(O)c(C(=O)O)c1 [5-ASA, 5-aminosalicylic acid, reference compound]
- oxazolone-induced increase in plasma GCSF/CSF3 [1]: attenuated

Molecule: Cn1c(=O)c2c(ncn2C)n(C)c1=O [caffeine]
- time at which absorption of caffeine was observable (capsule opening) ([2]; all doses): 2-3 hours post dose
- Cmax ([2]; male, cynomolgus monkey, plasma, po, 1 mg dosing group, 1x10 mg caffeine): 1350 ng/mL
- Cmax ([2]; male, cynomolgus monkey, plasma, po, 20.5 mg dosing group, 1x10 mg caffeine): 800 ng/mL
- Cmax ([2]; male, cynomolgus monkey, plasma, po, 82 mg dosing group, 4x10 mg caffeine): 3790 ng/mL
- Cmax ([2]; male, cynomolgus monkey, plasma, po, 4x10 mg caffeine): 6120 ng/mL
- Tmax ([2]; male, cynomolgus monkey, plasma, po, all doses): 4 h

Molecule: polysorbate 20
- absorbance in the 340-360 nm range after vortexing ([3]; 0.1% in 1xPBS): increase in absorbance was also observed
- effect of surfactant on IL-10 delivery construct forms (SEC-HPLC) [3]: most amount of monomer before vortexing

Molecule: polysorbate 80
- effect of surfactant on IL-10 delivery construct forms (SEC-HPLC) [3]: increase in HMW aggregates and monomers

Molecule: rhIL-10: recombinant human IL-10, commercial preparation, comparator [reference compound]
- increase in ratio of pSTAT3 to total STAT3 [4]: did not significantly alter
- rhIL-10 in serum of inflamed animals [5]: minimal amounts of rhIL-10 were detected
- hIL-10 and pSTAT3 in intestinal tissue [6]: exhibited pSTAT3 induction in enterocytes but not in cells within the lamina propria
- amplitude of pSTAT3/total STAT3 [7]: 2.19%
- increase of systemic IL-1Ra [8]: did not significantly increase
- EC50 ([9]; read-out: EC50, IL-10R dimerization): 0.0915 nM

B1: cholix derived carrier: truncated non-toxic cholix variant of 386 amino acids, carrier alone (protein)
chain: VEEALNIFDECRSPCSLTPEPGKPIQSKLSIPSDVVLDEGVLYYSMTINDEQNDIKDEDKGESIITIGEFATVRATRHYVNQDAPFGVIHLDITTENGTKTYSYNRKEGEFAINWLVPIGEDSPASIKISVDELDQQRNIIEVPKLYSIDLDNQTLEQWKTQGNVSFSVTRPEHNIAISWPSVSYKAAQKEGSRHKRWAHWHTGLALCWLVPMDAIYNYITQQNCTLGDNWFGGSYETVAGTPKVITVKQGIEQKPVEQRIHFSKGNAMSALAAHRVCGVPLETLARSRKPRDLTDDLSCAYQAQNIVSLFVATRILFSHLDSVFTLNLDEQEPEVAERLSDLRRINENNPGMVTQVLTVARQIYNDYVTHHPGLTPEQTSAGAQA
- EC50, IL-10R dimerization [9]: did not induce IL-10R dimerization
